Measured values published in PMC6133092, “Synthesis of 2-alkylthio-N-(quinazolin-2-yl)benzenesulfonamide derivatives: anticancer activity, QSAR studies, and metabolic stability” (Monatshefte Fur Chemie, 2018).

Legend:
HCT-116 (colon cancer) = assay: MTT cell viability assay, HCT-116; type: cell-based; conditions: Homo sapiens, 72 h, mean ± SD
Experimental: (§1) All chemicals, if not stated otherwise, were obtained from Sigma-Aldrich (St. Louis, MO, USA). The MCF-7 and HeLa cell lines were purchased from Cell Lines Services (Eppelheim, Germany), the HCT-116 cell line was purchased from ATCC (ATCC-No: CCL-247). Cells were cultured in Dulbecco’s modified Eagle’s medium (DMEM) supplemented with 10% fetal bovine serum, 2 mM glutamine, 100 units/cm^3 penicillin, and 100 μg/cm^3 streptomycin. Cultures were maintained in a humidified atmosphere with 5% CO2 at 37 °C in an incubator (Heraceus, HeraCell).
(§2) Cell viability was determined using the MTT (3-(4,5-dimethylthiazol-2-yl)-2,5-diphenyltetrazolium bromide) assay. Cells were seeded in 96-well plates at a density of 5 × 10^3 cells/well and treated for 72 h with the examined compounds in the concentration range 1–100 μM (1, 10, 25, 50, and 100 μM). Following treatment, MTT (0.5 mg/cm^3) was added to the medium and cells were further incubated for 2 h at 37 °C. Cells were lysed with DMSO and the absorbance of the formazan solution was measured at 550 nm with a plate reader (Victor, 1420 multilabel counter). […] The experiment was performed in triplicate. Values are expressed as the mean ± SD of at least three independent experiments.

HeLa (cervical cancer) = assay: MTT cell viability assay, HeLa; type: cell-based; conditions: Homo sapiens
Experimental: as §1, §2

MCF-7 (breast cancer) = assay: MTT cell viability assay, MCF-7; type: cell-based, human; conditions: Homo sapiens, MCF7, 72 h, mean ± SD
Experimental: (§3) All of the newly synthesized compounds 9–24 were evaluated for their effects on cell viability in three human cancer cell lines: HCT-116 (colon cancer), HeLa (cervical cancer), and MCF-7 (breast cancer). Cisplatin was used as reference drug. […] Considering the activity of derivatives 9–12, 15, 17, 18, and 21–24, it can be noticed that phenyl group as R^3 bring an increase of cytotoxicity in comparison with methyl in place of R^3. However, this impact seems to be the most important for compounds with the bulky group in R^1 and generally, it is less for a set of derivatives with methyl group substituted in R^1 (9–12).
as §1, §2

UO-31 = assay: NCI-60 single dose screen, UO-31; type: cell-based; conditions: Homo sapiens, Renal cancer, single concentration 10^−5 M, read-out: IGP (inhibition growth percent) UO-31
Experimental: (§4) Aside from above, compounds 9–14 and 17–24 were also submitted to National Cancer Institute and evaluated for the cytotoxic effects toward 60 cell lines at a single dose of 10 μM (Table 2). […] As it was summarized in Table 2, leukemia RPMI-8226 and NSCLC A549/ATCC were most sensitive to compounds 18, 22, and 24. These derivatives in 10 μM concentration inhibited the growth of approximately 50% cells belonging to the above mention cell lines.
(§5) Cytotoxicity evaluation of compounds 9–14 and 17–24 was performed at the National Cancer Institute according to NCI-60 DTP human tumor cell line screen procedure.

MOLT-4 = assay: NCI-60 single dose screen, MOLT-4; type: cell-based; conditions: Homo sapiens, Leukemia, single concentration 10^−5 M, read-out: IGP (inhibition growth percent) MOLT-4
Experimental: as §4, §5

PC-3 = assay: NCI-60 single dose screen, PC-3; type: cell-based; conditions: Homo sapiens, Prostate cancer, single concentration 10^−5 M, read-out: IGP (inhibition growth percent) PC-3
Experimental: as §4, §5

HOP-92 = assay: NCI-60 single dose screen, HOP-92; type: cell-based; conditions: Homo sapiens, NSCLC, single concentration 10^−5 M, read-out: IGP (inhibition growth percent) HOP-92
Experimental: as §4, §5

SR = assay: NCI-60 single dose screen, SR; type: cell-based; conditions: Homo sapiens, Leukemia, single concentration 10^−5 M, read-out: IGP (inhibition growth percent) SR
Experimental: as §4, §5

EKVX = assay: NCI-60 single dose screen, EKVX; type: cell-based; conditions: Homo sapiens, NSCLC, single concentration 10^−5 M, read-out: IGP (inhibition growth percent) EKVX
Experimental: as §4, §5

[1] = Metabolic stability in human liver microsomes with NADPH; type: in vitro ADME; conditions: pooled human liver microsomes, pH 7.4, human liver microsomes 0.5 mg/cm^3, NADPH 1 mM, 10 μM compound, 37 °C, read-out: in vitro metabolic half-life t1/2
Experimental: Selected derivatives were submitted to metabolic stability study to assess their ability to remain unchanged in the presence of human metabolic enzymes. Human liver microsomes were used as they are a rich source of all common CYP isoenzymes. In vitro incubations were performed in the presence of NADPH as a cofactor and the disappearance of a derivative was followed using LC–MS technique. The in vitro metabolic half-life values are gathered in Fig. 3.
Stock solutions of studied compounds were prepared at concentration of 10 mM in DMSO. […] Incubation mixture contained 10 μM of a studied derivative, 1 mM of NADPH (Sigma-Aldrich) and 0.5 mg/cm^3 of pooled human liver microsomes (HLM, Sigma-Aldrich) in potassium phosphate buffer (0.1 M, pH 7.4). Incubation was carried out in thermostat at 37 °C and started by addition of studied compound. 50 mm^3 samples were taken at starting point and after 5, 15, 30, 45, and 60 min. Enzymatic reaction was terminated by the addition of the equal volume of ice-cold acetonitrile. Incubations were performed in triplicates, the average t1/2 and standard deviation was calculated. Control incubations were performed without NADPH to assess chemical instability. After collection, samples were immediately centrifuged (10 min, 10,000 rpm) and resulted supernatant was directly analyzed or kept in − 80 °C until LC–MS analysis. Natural logarithm of a compound over IS peak area ratio was plotted versus incubation time. Metabolic half-time (t1/2) was calculated from the slope of the linear regression.
LC–MS analysis was performed on an Agilent 1260 system coupled to SingleQuad 6120 mass spectrometer (Agilent Technologies, Santa Clara, CA, USA). Poroshell EC-C18 (2.1 mm × 150 mm, 2.7 μm, Agilent Technologies, Santa Clara, CA, USA) was used in reversed-phase mode with gradient elution starting with 5% of phase A (10 mM ammonium formate in water) and 95% of phase B (10 mM ammonium formate in acetonitrile–water mixture, 95:5 v/v). […] Total analysis time was 15 min at 40 °C, flow rate was 1 cm^3/min and the injection volume was 5 mm^3. The mass spectrometer was equipped with electrospray ion source and operated in positive ionization. Mass analyzer was set individually to each compound to detect [M+H]^+ protonated molecule. MSD parameters of the ESI source were as follows: nebulizer pressure 35 psig (N2), drying gas […] (N2), drying gas temperature 300 °C, capillary voltage 3 kV, fragmentor voltage 150 V.

RPMI-8226 = assay: NCI-60 single dose screen, RPMI-8226; type: cell-based; conditions: Homo sapiens, RPMI-8226, Leukemia; single concentration 10^−5 M; read-out: IGP (inhibition growth percent) RPMI-8226
Experimental: as §4, §5

MCF-7 = assay: NCI-60 single dose screen, MCF-7; type: cell-based; conditions: Homo sapiens, MCF7; Breast cancer; single concentration 10^−5 M; read-out: IGP (inhibition growth percent) MCF-7
Experimental: as §4, §5

NCI-H522 = assay: NCI-60 single dose screen, NCI-H522; type: cell-based; conditions: Homo sapiens, NSCLC, single concentration 10^−5 M, read-out: IGP (inhibition growth percent) NCI-H522
Experimental: as §4, §5

HCT-116 = assay: NCI-60 single dose screen, HCT-116; type: cell-based; conditions: Homo sapiens, Colon cancer, single concentration 10^−5 M, read-out: IGP (inhibition growth percent) HCT-116
Experimental: as §4, §5

UACC-62 = assay: NCI-60 single dose screen, UACC-62; type: cell-based; conditions: Homo sapiens, Melanoma, single concentration 10^−5 M, read-out: IGP (inhibition growth percent) UACC-62
Experimental: as §4, §5

A549/ATCC = assay: NCI-60 single dose screen, A549/ATCC; type: cell-based; conditions: Homo sapiens, A549, NSCLC; single concentration 10^−5 M; read-out: IGP (inhibition growth percent) A549/ATCC
Experimental: as §4, §5

HaCaT = assay: Cytotoxic effect against non-carcinogenic cell line HaCaT; type: cell-based
Experimental: For the compounds with the strongest cytotoxicity (12, 18, 22, and 24), an investigation of cytotoxic effect against non-carcinogenic cell line HaCaT was done. […] The activity against HCT-116 was 1.7-, 1.6-, 1.5-, and 1.4-fold higher when compared with HaCaT cell line, for compounds 12, 18, 22, and 24, respectively.
as §2

HCT-116, HeLa, MCF-7 = assay: MTT assays, mean over three tested cell lines; type: cell-based; conditions: Homo sapiens, mean of HCT-116, HeLa, read-out: mean IC50 against three tested cell lines
Experimental: as §3, §2

[2] = Table 4, repeats Table 1 values without SD and unit

Row | SMILES | IC50 (HCT-116 (colon cancer)) [µM] | IC50 (HeLa (cervical cancer); MTT, 72 h, mean ± SD) [µM] | melting point | IC50 (MCF-7 (breast cancer)) [µM] | inhibition at 10 µM (UO-31) [%] | inhibition at 10 µM (MOLT-4) [%] | IC50 (HeLa (cervical cancer); [2]) [µM] | inhibition at 10 µM (PC-3) [%] | inhibition at 10 µM (HOP-92) [%] | inhibition at 10 µM (SR) [%] | inhibition at 10 µM (EKVX) [%] | half-life at 10 μM [1] [min] | inhibition at 10 µM (RPMI-8226) [%] | inhibition at 10 µM (MCF-7) [%] | inhibition at 10 µM (NCI-H522) [%] | inhibition at 10 µM (HCT-116) [%] | inhibition at 10 µM (UACC-62) [%] | inhibition at 10 µM (A549/ATCC) [%] | also measured
1 | CCOC(=O)CSc1cc(Cl)c(C)cc1S(=O)(=O)Nc1nc(C)c2ccccc2n1 [Compound 15, 4-Chloro-2-(2-ethoxy-2-oxoethylthio)-5-methyl-N-(4-methylquinazolin-2-yl)benzenesulfonamide] | 110 ± 2 | 230 ± 7 | 192 to 194 °C | 160 ± 6 |  |  |  |  |  |  |  |  |  |  |  |  |  |  | 
2 | Cc1nc(NS(=O)(=O)c2cc(C(=O)Nc3ccc(Cl)cc3)c(Cl)cc2SCc2ccccc2)nc2ccccc12 [Compound 21, 2-Benzylthio-4-chloro-5-(4-chlorophenylcarbamoyl)-N-(4-methylquinazolin-2-yl)benzenesulfonamide] | 54 ± 1 | 71 ± 2 |  | 115 ± 2 | 22 | 7 | 71 | 8 | 8 | 3 | 8 | 37.7 | 12 | 5 | 20 | 4 | 6 | 8 | 
3 | CCOC(=O)CSc1cc(Cl)c(C)cc1S(=O)(=O)Nc1nc(-c2ccccc2)c2ccccc2n1 [Compound 16, 4-Chloro-2-(2-ethoxy-2-oxoethylthio)-5-methyl-N-(4-phenyl-quinazolin-2-yl)benzenesulfonamide] | 62 ± 1 | 74 ± 4 | 162 to 165 °C | 105 ± 3 |  |  | 74 |  |  |  |  |  |  |  |  |  |  |  | 
4 | Cc1cc(S(=O)(=O)Nc2nc(C)c3ccccc3n2)c(SCC(N)=O)cc1Cl [Compound 13, 2-Carbamoylmethylthio-4-chloro-5-methyl-N-(4-methylquinazolin-2-yl)benzenesulfonamide] | 260 ± 5 | 320 ± 22 | 232 to 235 °C (dec.) | 440 ± 4 | 8 | 11 |  |  |  | 12 | 5 | 75.4 |  | 6 | 4 |  |  |  | 
5 | Cc1cc(S(=O)(=O)Nc2nc(-c3ccccc3)c3ccccc3n2)c(SCc2cc3c(cc2Cl)OCO3)cc1Cl [Compound 12, 4-Chloro-2-(6-chlorobenzo[d][1,3]dioxol-5-ylmethylthio)-5-methyl-N-(4-phenylquinazolin-2-yl)benzenesulfonamide] | 37 ± 1 | 46 ± 1 |  | 51 ± 2 | 25 | 12 | 46 | 14 |  |  |  | 48.1 | 2 | 5 | 16 | 6 | 33 | 14 | IC50 (HaCaT; Homo sapiens, HaCaT, non-carcinogenic cell line, mean ± SD): 64 ± 2 µM; activity against HCT-116 fold higher compared with HaCaT (HaCaT; selectivity HCT-116 vs HaCaT): 1.7 fold; inhibition of growth of HaCaT cells fold weaker than HeLa cells (HaCaT; selectivity HeLa vs HaCaT): 1.4 fold; IC50 (HCT-116, HeLa, MCF-7): 44.7 µM
6 | Cc1cc(S(=O)(=O)Nc2nc(-c3ccccc3)c3ccccc3n2)c(SCc2ccccc2)cc1Cl [Compound 10, 2-Benzylthio-4-chloro-5-methyl-N-(4-phenylquinazolin-2-yl)benzenesulfonamide] | 44 ± 1 | 61 ± 2 | 192 to 198 °C | 57 ± 1 | 5 | 25 | 61 |  | 17 | 14 | 6 | 49.2 | 25 | 9 |  | 8 | 29 |  | 
